From publication PMC3641841 (2010)

Test system: Oxytricha Nova quadruplex (GGGGTTTTGGGG)2 (DNA, G4) GGGGTTTTGGGG
Experiment: ITC
Details: 10 mM sodium cacodylate, 0.5 mM EDTA, pH 7.0, 20 °C

Ka (K+ 90 mM) | Ka (Na+ 100 mM) | SMILES
1.15±0.08 × 10^5 M^−1 | 1.03±0.50 × 10^5 M^−1 | NC[C@@H]1O[C@H](O[C@H]2[C@@H](O)[C@H](O[C@@H]3[C@@H](O)[C@H](N)C[C@H](N)[C@H]3O[C@H]3O[C@H](CN)[C@@H](O)[C@H](O)[C@H]3N)O[C@@H]2CO)[C@H](N)[C@@H](O)[C@@H]1O
0.45±0.01 × 10^5 M^−1 |  | NC[C@@H]1O[C@H](O[C@H]2[C@@H](O)[C@H](O[C@@H]3[C@@H](O)[C@H](N)C[C@H](N)[C@H]3O[C@H]3O[C@H](CO)[C@@H](O)[C@H](O)[C@H]3N)O[C@@H]2CO)[C@H](N)[C@@H](O)[C@@H]1O
